Source: paper PMC8026479 (Cancer Chemotherapy and Pharmacology, 2021)
Where two headings read alike, the source gives them in different places.

Columns and labels:
[1] = tested on: transition rate constant from G1 to cycling for HSPCs; assay: Semi-mechanistic multi-compartment PK/PD model of hematopoiesis; design: species or system mouse, rat, and dog
Source text: Owing to the invasive nature of the PD marker collection (i.e. bone marrow aspiration), a semi-mechanistic PK/PD model based on animal PK/PD data and human PK data was developed to guide the selection of an optimal dose level for bone marrow aspiration in humans during dose escalation in the Phase I first-in-human study. The model was constructed using PK data from four species (mouse, rat, dog, and human) and PD data from three species (mouse, rat, and dog; Online Resources 1 and 2).
The PK/multi-compartment PD model was based on a myelosuppression model previously published by Friberg et al., with modifications. […] In the model used in the current study, stem cells and progenitor cells were separated into two compartments, with experimental data measured for each compartment. […] Another important deviation from the Friberg model was the mechanism postulated for the homeostasis of the […] (PMNs). We postulated that the feedback mechanism has a set point target and that deviations from that target would accelerate (in the case of too few PMNs) or decelerate (in the case of too many PMNs) the transition of G1-phase cells to S-phase cells in the stem cell population.
The model was constructed in two stages. First, preclinical PK data (e.g. doses, routes, and schedule of administration, observed concentrations) were compiled and modeled by allometric scaling. A sequential PK/PD modeling approach (population PK parameters and data approach) was then employed in which a semi-mechanistic PD model with various physiological compartments was created, and specific assumptions entered (Online Resource 3). Traditional forward addition/backward elimination was used for PK modeling. […] Many parameters in this complex model could not be estimated and were fixed either to the literature values or values selected on the basis of discussions with domain experts and sensitivity analysis. In preclinical animal models, the PD analysis modeled bone marrow cells positive for 5′-ethynyl-2′-deoxyuridine (EdU) and peripheral neutrophil counts simultaneously. […]

[2] = tested on: chemotherapy-induced myelosuppression in ES-SCLC patients; assay: Study G1T28-02 Part 1 DLTs and myelosuppression endpoints (with E/P); assay type: in vivo, human
Source text: (§1) G1T28-02 (NCT02499770) was a multicentre Phase Ib/IIa study in patients with newly diagnosed ES-SCLC [5]. Eligible patients were aged ≥ 18 years and had histologically or cytologically confirmed ES-SCLC, measurable disease per Response Evaluation Criteria in Solid Tumors (RECIST) version 1.1, an Eastern Cooperative Oncology Group (ECOG) performance status of 0–2, and adequate organ function. […] In the dose-finding Part 1 portion, blood samples for PK analysis were collected at prespecified time points on Cycle 1 Day 1 and Cycle 1 Day 3 (200 mg/m^2 cohort: all patients; 240 mg/m^2 cohort: optional).

[3] = Study G1T28-02 Part 1 plasma PK (with E/P); assay type: in vivo, human; conditions: ES-SCLC + E/P; for Vd: read-out: Vz; for Tmax: range; for AUC: read-out: AUCtau (AUC0-inf, footnote a)
Source text: as §1

[4] = G1T28-02 Part 1, 200 mg/m2 + E/P (n = 10)
[5] = G1T28-02 Part 1, 240 mg/m2 + E/P (n = 9)
[6] = G1T28-02 Part 1, trilaciclib total (n = 19)
[7] = 200 mg/m2, Cycle 1 Day 3 (n = 8), mean
[8] = 240 mg/m2, Cycle 1 Day 1 (n = 1)
[9] = human, plasma, intravenous, 200 mg/m2, Cycle 1 Day 1 (n = 8), mean
[10] = human, plasma, intravenous, 200 mg/m2, Cycle 1 Day 3 (n = 8), mean
[11] = human, plasma, intravenous, 240 mg/m2, Cycle 1 Day 1 (n = 1)
[12] = human, plasma, intravenous, 240 mg/m2, Cycle 1 Day 3 (n = 1)

CN1CCN(c2ccc(Nc3ncc4cc5n(c4n3)C3(CCCCC3)CNC5=O)nc2)CC1 [trilaciclib]
EC50, final PD model (concentration of G1T28 with 50% max effect) ([1]; plasma concentration, Emax effect on G1-to-cycling transition of HSPCs, model estimate): 5.9 ng/mL
EC90 (therapeutically active) ([1]; predicted from model EC50): approximately 50 ng/mL
DSN, median (SD) (footnote a) [2, 4]: 6 (5.7) days
Mean ANC Nadir in Cycle 1 [2, 4]: 1.198e+09 L⁻¹
Occurrence of ESA administrations [2, 4]: 2 (20.0) n (%)
Occurrence of FN [2, 4]: 0 n (%)
Occurrence of G-CSF administration [2, 4]: 5 (50.0) n (%)
Occurrence of Grade 3 or 4 hematologic laboratory abnormalities [2, 4]: 4 (40.0) n (%)
Occurrence of IV antibiotic use [2, 4]: 4 (40.0) n (%)
Occurrence of RBC transfusions on/after Week 5 [2, 4]: 4 (40.0) n (%)
Occurrence of SN [2, 4]: 4 (40) n (%)
Occurrence of infection SAEs [2, 4]: 2 (20.0) n (%)
Occurrence of platelet transfusions [2, 4]: 1 (10.0) n (%)
Occurrence of pulmonary infection SAEs [2, 4]: 1 (10.0) n (%)
Patients with any event for MAHE [2, 4]: 6 (60.0) n (%)
Time to first MAHE, median [2, 4]: 2.6 months
DLTs reported ([2]; G1T28-02 Part 1, 200 mg/m2 + E/P, Grade 4 thrombocytopenia, and Grade 2 neutropenia resulting in Cycle 2 delay): Two DLTs
Mean ANC Nadir in Cycle 1 [2, 5]: 1.653e+09 L⁻¹
Occurrence of ESA administrations [2, 5]: 0 n (%)
Occurrence of FN [2, 5]: 0 n (%)
Occurrence of G-CSF administration [2, 5]: 3 (33.3) n (%)
Occurrence of Grade 3 or 4 hematologic laboratory abnormalities [2, 5]: 1 (11.1) n (%)
Occurrence of IV antibiotic use [2, 5]: 1 (11.1) n (%)
Occurrence of RBC transfusions on/after Week 5 [2, 5]: 1 (11.1) n (%)
Occurrence of SN [2, 5]: 0 n (%)
Occurrence of infection SAEs [2, 5]: 1 (11.1) n (%)
Occurrence of platelet transfusions [2, 5]: 0 n (%)
Occurrence of pulmonary infection SAEs [2, 5]: 0 n (%)
Patients with any event for MAHE [2, 5]: 6 (66.7) n (%)
Time to first MAHE, median [2, 5]: 3.0 months
DLTs reported ([2]; G1T28-02 Part 1, 240 mg/m2 + E/P, Grade 2 neutropenia resulting in Cycle 2 delay): one
DSN, median (SD) (footnote a) [2, 6]: 6 (5.7) days
Mean ANC Nadir in Cycle 1 [2, 6]: 1.414e+09 L⁻¹
Occurrence of ESA administrations [2, 6]: 2 (10.5) n (%)
Occurrence of FN [2, 6]: 0 n (%)
Occurrence of G-CSF administration [2, 6]: 8 (42.1) n (%)
Occurrence of Grade 3 or 4 hematologic laboratory abnormalities [2, 6]: 5 (26.3) n (%)
Occurrence of IV antibiotic use [2, 6]: 5 (26.3) n (%)
Occurrence of RBC transfusions on/after Week 5 [2, 6]: 5 (26.3) n (%)
Occurrence of infection SAEs [2, 6]: 3 (15.8) n (%)
Occurrence of platelet transfusions [2, 6]: 1 (5.3) n (%)
Occurrence of pulmonary infection SAEs [2, 6]: 1 (5.3) n (%)
Patients with any event for MAHE [2, 6]: 12 (63.2) n (%)
Time to first MAHE, median [2, 6]: 2.6 months
Cmax [3, 7]: 1620 ng/mL
T1/2 [3, 7]: 9.12 h
AUC(0-inf) [3, 8]: 2280 ng·h/mL
Cmax [3, 8]: 1570 ng/mL
clearance [3, 9]: 2500 mL/min
AUC(0-inf) ([3]; human, plasma, intravenous, 200 mg/m2, Cycle 1 Day 1 (n = 8), mean, read-out: AUC0-inf): 2560 ng·h/mL
Cmax ([3]; human, plasma, intravenous, 200 mg/m2, Cycle 1 Day 1 (n = 8), mean, read-out: Cmax): 1240 ng/mL
Vd [3, 9]: 1700 L
Tmax ([3]; human, plasma, intravenous, 200 mg/m2, Cycle 1 Day 1 (n = 8)): 0.45 to 0.98 h
clearance [3, 10]: 2230 mL/min
AUC [3, 10]: 3110 ng·h/mL
Vd [3, 10]: 1770 L
Tmax ([3]; human, plasma, intravenous, 200 mg/m2, Cycle 1 Day 3 (n = 8)): 0.47 to 1 h
clearance [3, 11]: 3850 mL/min
half-life [3, 11]: 2.91 h
Vd [3, 11]: 967 L
clearance [3, 12]: 3000 mL/min
half-life [3, 12]: 4.03 h
AUC [3, 12]: 2960 ng·h/mL
Cmax ([3]; human, plasma, intravenous, 240 mg/m2, Cycle 1 Day 3 (n = 1), read-out: Cmax): 2260 ng/mL
Vd [3, 12]: 1050 L
